Structures can show the parent of a compound that is named as a salt.

For this test, the target named is Glycogen synthase kinase-3 beta (Homo sapiens, UniProt P49841). Briefly: GSK3beta kinase inhibitor potency, dose response, biochemical, luminescence, cell-free homogeneous, retest (AID 434954).
Sequence of Glycogen synthase kinase-3 beta (P49841 whole entry): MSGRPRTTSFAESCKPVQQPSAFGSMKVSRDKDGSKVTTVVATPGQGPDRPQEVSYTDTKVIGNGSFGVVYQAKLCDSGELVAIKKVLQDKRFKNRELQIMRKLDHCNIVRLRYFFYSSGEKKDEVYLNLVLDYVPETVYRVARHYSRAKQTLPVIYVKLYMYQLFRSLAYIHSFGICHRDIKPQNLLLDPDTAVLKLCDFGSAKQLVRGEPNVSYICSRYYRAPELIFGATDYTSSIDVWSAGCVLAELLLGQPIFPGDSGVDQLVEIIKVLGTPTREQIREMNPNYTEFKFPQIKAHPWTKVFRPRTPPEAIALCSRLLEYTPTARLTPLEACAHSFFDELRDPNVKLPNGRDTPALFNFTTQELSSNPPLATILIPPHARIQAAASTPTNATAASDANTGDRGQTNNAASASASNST
Molecule `CCOC(=O)c1cnc2ccc(OC)cc2c1Nc1ccc(N2CCN(C)CC2)cc1` [6-methoxy-4-[4-(4-methyl-1-piperazinyl)anilino]-3-quinolinecarboxylic acid ethyl ester] had an EC50 of 5.26 µM.
For `COc1cc(/C=C2\Oc3cc(O)ccc3C2=O)ccc1O`, the EC50 is 12.4 µM.
With `COc1cc(C=NNC(=O)c2sc(N)c(C#N)c2C)ccc1O` [MLS000540774], the EC50 came out at 0.436 µM.
With `CCc1ccc(CN=Nc2ncnc3nc[nH]c23)cc1` [MLS000419199] the figure was 26.6 µM.
With `O=c1cc(-c2ccccc2Cl)oc2c(NS(=O)(=O)c3ccccc3C(F)(F)F)ccc(O)c12` the figure was over 300 µM; with `CCNC(=O)NC(=O)CSc1nc2ccccc2n1CCOC` [SMR000154706], over 300 µM; with `Cc1c(CN(C)C)c2c(n1C)C(=O)c1ccc(Br)cc1-2` [7-bromo-1-[(dimethylamino)methyl]-2,3-dimethyl-4-indeno[2,3-b]pyrrolone;hydrochloride], 17.8 µM.
Consider `O=C(Nc1ccccc1)ON=C1c2ccccc2-c2ccccc21` [9H-fluoren-9-one O-(anilinocarbonyl)oxime], for which the EC50 was over 300 µM.
The molecule `O=C1CN(c2nc(-c3cccnc3)nc3sc4c(c23)CCCC4)CCN1` [MLS000772211] yielded an EC50 of 24.8 µM.
The molecule `O=C(OCCCCOC(=O)c1ccccc1)c1ccccc1` [SMR000459786] registered an EC50 of over 300 µM.
`NC(=O)c1c(NC(=O)CCCn2cnc([N+](=O)[O-])n2)sc2c1CCCC2` [2-{[4-(3-nitro-1H-1,2,4-triazol-1-yl)butanoyl]amino}-4,5,6,7-tetrahydro-1-benzothiophene-3-carboxamide] registered an EC50 of 105 µM.
Consider `c1ccc(CSc2nnc(-c3ccncc3)o2)cc1`, for which the EC50 worked out at 5.14 µM.
Take `O=C(NCCc1nnc2ccc(NCC3CCCO3)nn12)c1ccccc1` (stereo not given) [N-(2-{6-[(tetrahydrofuran-2-ylmethyl)amino][1,2,4]triazolo[4,3-b]pyridazin-3-yl}ethyl)benzamide]: the EC50 is over 300 µM.
Under `Cc1ccc(S(=O)(=O)NCC2COc3ccccc3O2)cc1` (stereo not given) [N-(2,3-Dihydro-benzo[1,4]dioxin-2-ylmethyl)-4-methyl-benzenesulfonamide] stands over 300 µM; under `CC(C)=CCc1c(O)cc(O)c2c(=O)c3c(CC=C(C)C)c(O)ccc3oc12` [2,6,8-trihydroxy-1,5-bis(3-methylbut-2-enyl)xanthen-9-one], over 300 µM; under `Cc1[nH]nc2c1C(c1ccc(F)cc1)C1C(=O)CC(C)(C)CC1=N2` (stereo not given) [4-(4-fluorophenyl)-3,7,7-trimethyl-1,4,6,7,8,9-hexahydro-5H-pyrazolo[3,4-b]quinolin-5-one], 3.93 µM.
Under `O=C(NCc1ccco1)C(=O)c1cn(CC(=O)N2CCCC2)c2ccccc12` [N-(furan-2-ylmethyl)-2-oxidanylidene-2-[1-(2-oxidanylidene-2-pyrrolidin-1-yl-ethyl)indol-3-yl]ethanamide] stands over 300 µM; under `O=C(NN=Cc1cccnc1)c1cc(-c2ccccc2)nc2c(Cl)cccc12` [MLS001230128], over 300 µM.
Molecule `Cc1nc[nH]c1C(=O)NN=Cc1c(Cl)cccc1Cl` [MLS001182271] yielded an EC50 of 21.8 µM.
Consider `CCOc1cccc(C(=O)Nc2cccc(-c3nc4ncccc4o3)c2C)c1` [3-ethoxy-N-[2-methyl-3-([1,3]oxazolo[4,5-b]pyridin-2-yl)phenyl]benzamide], for which the EC50 is over 300 µM.
Under `COc1ccc(C(=O)c2ccsc2N)cc1` [MLS001166080] stands over 300 µM.
Molecule `Clc1ccc(-c2nnc(-c3ccccc3)c(N3CCSCC3)n2)cc1` displayed a half-maximal effective concentration (EC50) of over 300 µM.
As for `COc1ccc(C(=O)c2coc3ccc(O)cc23)cc1` [MLS001198628], the concentration for a half-maximal effect (EC50) was found to be 13.2 µM.
In the case of `CCC(C)Nc1nc(N)c([N+](=O)[O-])c(NCc2ccccc2)n1` (stereo not given), the EC50 amounted to 9.62 µM.
The molecule `CC1(C)CC(=O)C=C(Nc2ccccc2F)C1` [SMR000105669] gave an EC50 of over 300 µM.
With `O=NCc1ccc(Oc2ccccc2Cl)c([N+](=O)[O-])c1` [N-[[4-(2-chlorophenoxy)-3-nitrophenyl]methylidene]hydroxylamine], the midpoint of the response, the EC50, lay at 12.8 µM.
Take `COC(=O)C1=C(C)N(Cc2ccccc2)C(NCc2ccc(OC)cc2)=N[C@H]1c1cccc(F)c1` [MLS000829932]: the EC50 was over 300 µM.
`O=C(CSc1ccc2nnc(-c3ccc(F)cc3)n2n1)NCc1ccco1` [2-[[3-(4-fluorophenyl)-[1,2,4]triazolo[4,3-b]pyridazin-6-yl]thio]-N-(2-furanylmethyl)acetamide] displayed an EC50 of 39.9 µM.
Molecule `CC(C)N1CCc2c(sc(NC(=O)CCS(=O)(=O)c3ccccc3)c2C(N)=O)C1` [2-[[3-(benzenesulfonyl)-1-oxopropyl]amino]-6-propan-2-yl-5,7-dihydro-4H-thieno[2,3-c]pyridine-3-carboxamide;hydrochloride] showed a 50% effective concentration (EC50) of over 300 µM.
Regarding `COc1ccc(Nc2nc(-c3ccccc3)c(C(=O)Nc3cccnc3)s2)cc1` [MLS001018742], the EC50 is over 300 µM.
The molecule `O=C(NCCN1C(=O)S/C(=C\c2ccc(Cl)c(Cl)c2)C1=O)C1COc2ccccc2O1` (stereo not given) [SMR000254587] returned an EC50 of over 300 µM.
Under `Cc1ccc(CN=Nc2ncnc3nc[nH]c23)cc1` [MLS000419179] stands 30.1 µM; under `O=Cc1cn(CCC(=O)O)nc1-c1cccc(Br)c1` [3-[3-(3-bromophenyl)-4-formylpyrazol-1-yl]propanoic acid], over 300 µM.
The molecule `O=C(CN1C(=O)CCC1=O)Nc1cccc(NC(=O)CN2C(=O)CCC2=O)c1` [2-(2,5-dioxo-1-pyrrolidinyl)-N-[3-[[2-(2,5-dioxo-1-pyrrolidinyl)-1-oxoethyl]amino]phenyl]acetamide] yielded an EC50 of over 300 µM.
In turn, `CCn1nc(NC(=O)C2CCCO2)c2cc3cccc(C)c3nc21` (stereo not given) [Tetrahydro-furan-2-carboxylic acid (1-ethyl-8-methyl-1H-pyrazolo[3,4-b]quinolin-3-yl)-amide] returned an EC50 of over 300 µM.
On to `CCOc1cc(C2c3c(n[nH]c3C)C(=O)N2c2ccc(Br)cc2)ccc1O` (stereo not given) [SMR000059772], for which the EC50 was over 300 µM.
For the molecule `O=C(NCCCN1CCN(Cc2ccccc2)CC1)C1CCN(S(=O)(=O)N2CCCC2)CC1` [N-[3-[4-(phenylmethyl)-1-piperazinyl]propyl]-1-(1-pyrrolidinylsulfonyl)-4-piperidinecarboxamide], the EC50 was over 300 µM.
`O=C(Nc1ccncc1)c1ccccc1-c1ccccc1` [MLS000672259] registered a 50% effective concentration (EC50) of 14.5 µM.
`COC(=O)COc1ccc2occ(C(C)=O)c2c1` gave an EC50 of over 300 µM.
On to `CCCc1cc(=O)[nH]c(SCCOc2ccc(OCC)cc2)n1`, for which the EC50 was over 300 µM.
`Nc1nc(Nc2ccccc2F)sc1C(=O)c1ccccc1` [[4-amino-2-(2-fluoroanilino)-1,3-thiazol-5-yl]-phenylmethanone] yielded a concentration giving a half-maximal response (EC50) of 0.622 µM.
`O=[N+]([O-])c1ccccc1Oc1ccccc1Cl` showed a half-maximal effective concentration (EC50) of over 300 µM.
`CCOc1ccc(-c2nnc3ccc(SC)nn23)cc1` [SMR000028968] had an EC50 of over 300 µM.
Under `Cc1ccc(NC(=O)CSCc2ccc(F)cc2)cc1` [MLS000701707] stands over 300 µM.
`CCC(C)Nc1nc(N)c([N+](=O)[O-])c(Nc2cc(OC)ccc2OC)n1` (stereo not given) [N2-butan-2-yl-N4-(2,5-dimethoxyphenyl)-5-nitro-pyrimidine-2,4,6-triamine] displayed an EC50 of 0.539 µM.
Take `O=C(CN1CCN(S(=O)(=O)c2ccccc2)CC1)Nc1ccc([N+](=O)[O-])cc1` [2-[4-(benzenesulfonyl)-1-piperazinyl]-N-(4-nitrophenyl)acetamide]: the EC50 was over 300 µM.
In turn, `COCCNc1nc(N)c([N+](=O)[O-])c(NCCO)n1` [2-[[6-azanyl-2-(2-methoxyethylamino)-5-nitro-pyrimidin-4-yl]amino]ethanol] returned an EC50 of 28.5 µM.
Molecule `Cc1ccc(C(=O)Nc2ccccc2C(=O)NCc2ccco2)cc1S(=O)(=O)N1CCCCC1` [SMR000076380] gave an EC50 of over 300 µM.
The molecule `Cc1cn(C2OC(COC(=O)c3ccccc3)C(O)C2O)c(=O)[nH]c1=O` (stereo not given) [benzoic acid [3,4-dihydroxy-5-(5-methyl-2,4-dioxo-1-pyrimidinyl)-2-oxolanyl]methyl ester] returned an EC50 of 19.2 µM.
`Nc1nonc1-n1nnc(C(=O)NN=Cc2c(F)cccc2Cl)c1-c1ccc2c(c1)OCO2` [1-(4-amino-1,2,5-oxadiazol-3-yl)-5-(1,3-benzodioxol-5-yl)-N-[(2-chloro-6-fluorophenyl)methylideneamino]-4-triazolecarboxamide] displayed an EC50 of 1.58 µM.
Take `N#Cc1c(O)nc(SCC(=O)Nc2ccc(OC(F)(F)Cl)cc2)nc1-c1ccccc1` [N-{4-[chloro(difluoro)methoxy]phenyl}-2-[(5-cyano-6-oxo-4-phenyl-1,6-dihydropyrimidin-2-yl)thio]acetamide]: the EC50 is over 300 µM.
In the case of `O=S(=O)(c1ccc(F)cc1)c1nc(-c2ccco2)oc1Nc1ccccc1` [4-(4-fluorophenyl)sulfonyl-2-(furan-2-yl)-N-phenyl-1,3-oxazol-5-amine], the EC50 is over 300 µM.
`COCCn1nnnc1C(c1cc2cc(C)ccc2[nH]c1=O)N1CCc2ccccc21` (stereo not given) [SMR000122998] displayed an EC50 of over 300 µM.
In turn, `Cn1c(SCc2nnc(-c3ccc(F)cc3)o2)nnc1C1COc2ccccc2O1` (stereo not given) [MLS000098636] registered an EC50 of 221 µM.
Consider `N#Cc1c2n(c3c(N)ncnc13)CCCCC2` [4-Amino-6,7,8,9-tetrahydro-5H-1,3,4b-triaza-benzo[a]azulene-10-carbonitrile], for which the concentration giving a half-maximal response (EC50) was over 300 µM.
In turn, `NS(=O)(=O)c1ccc(N2CCCCCC2)c([N+](=O)[O-])c1` [4-(azepan-1-yl)-3-nitrobenzenesulfonamide] registered an EC50 of over 300 µM.
Consider `CC1(C)CC(=O)C2C(=Nc3ccccc3NC2c2ccc(F)cc2)C1` (stereo not given) [SMR000515995], for which the EC50 is over 300 µM.
In the case of `CCN(CC)S(=O)(=O)c1cccc(-n2cc(O)c(-c3ccccc3)c2N)c1` [SMR000368326], the EC50 is over 300 µM.
In turn, `O=C(NN=CC1=CC(=O)C(=O)CC1)NN=CC1=CC(=O)C(=O)CC1` [1,3-bis[[(Z)-(3-hydroxy-4-oxocyclohexa-2,5-dien-1-ylidene)methyl]amino]urea] had an EC50 of 13.3 µM.
Molecule `CC(=O)N1CCc2c(sc(NC(=O)C3CCCN3S(=O)(=O)c3cccs3)c2C(N)=O)C1` (stereo not given) [6-acetyl-2-[(1-thiophen-2-ylsulfonylpyrrolidine-2-carbonyl)amino]-5,7-dihydro-4H-thieno[2,3-c]pyridine-3-carboxamide] displayed an EC50 of over 300 µM.

Values taken from BindingDB's records for doi:10.7270/Q2TX3CTT (Broad Institute, 2010).
